Experimental data reported in the NIST ThermoML archive (doi:10.1021/je300086w).

Tests used:
[1] = for viscosity / mass density: 101.33 kPa, Liquid; for mass density: Vibrating tube method; for Normal melting temperature: Crystal, AC calorimetry
[2] = refractive index (Na D-line) (dimensionless); conditions: 101.33 kPa, Liquid, Standard Abbe refractometry

CCCC(=O)[O-].C[N+](C)(C)CCO [choline butanoate]
Conditions | mass density, [1] [kg/m3] | refractive index, [2] | viscosity, [1] [mPa·s]
293.15 K | 1049.5 | 1.4716 | 833.1
298.15 K | 1046.5 | 1.47 | 630.6
303.15 K | 1043.4 | 1.4683 | 459.3
308.15 K | 1040.5 | 1.4667 | 344.2
313.15 K | 1037.6 | 1.465 | 254
318.15 K | 1034.6 | 1.4633 | 193.8
323.15 K | 1031.9 | 1.4617 | 150.2
328.15 K | 1029 | 1.46 | 118.2
333.15 K | 1026.2 | 1.4585 | 94.3
338.15 K | 1023.4 | – | 76.1
343.15 K | 1020.5 | – | 62.2
348.15 K | 1017.2 | – | 51.4
353.15 K | 1014.5 | – | 42.9

CCC(=O)[O-].C[N+](C)(C)CCO [cholinium propanoate]
Conditions | mass density, [1] [kg/m3] | refractive index, [2] | viscosity, [1] [mPa·s]
293.15 K | 1074.6 | 1.4705 | 395.8
298.15 K | 1071.5 | 1.4686 | 290.2
303.15 K | 1068.6 | 1.4668 | 215.6
308.15 K | 1065.7 | 1.465 | 163.2
313.15 K | 1062.8 | 1.4631 | 125.8
318.15 K | 1060 | 1.4611 | 98.5
323.15 K | 1057.2 | 1.4592 | 78.3
328.15 K | 1054.3 | 1.4573 | 63
333.15 K | 1051.4 | 1.4555 | 51.4
338.15 K | 1048.6 | – | 42.4
343.15 K | 1045.8 | – | 35.4
348.15 K | 1042.9 | – | 29.8
353.15 K | 1040.1 | – | 25.4

CC(=O)OCC[N+](C)(C)C [2-acetoxy-N,N,N-trimethylethanaminium]
Conditions | Normal melting temperature [°C]
[1] | 72.0

CCCCCC(=O)[O-].C[N+](C)(C)CCO [2-hydroxy-N,N,N-trimethylethanaminium hexanoate]
Conditions | mass density, [1] [kg/m3] | refractive index, [2] | viscosity, [1] [mPa·s]
293.15 K | 1018.8 | 1.4726 | 929.2
298.15 K | 1015.7 | 1.4709 | 710.7
303.15 K | 1012.5 | 1.4692 | 530.4
308.15 K | 1009.8 | 1.4675 | 400.3
313.15 K | 1006.8 | 1.4658 | 298
318.15 K | 1003.9 | 1.464 | 225.9
323.15 K | 1001.3 | 1.4624 | 175.3
328.15 K | 998.4 | 1.4607 | 140.3
333.15 K | 995.5 | 1.459 | 110.9
338.15 K | 992.6 | – | 89.7
343.15 K | 989.7 | – | 73.7
348.15 K | 986.8 | – | 60.9
353.15 K | 984 | – | 51

CC(C)(C)C(=O)[O-].C[N+](C)(C)CCO [choline pivalate]
Conditions | Normal melting temperature [°C]
[1] | 96.0
